Results from ChEMBL document CHEMBL5113385, “Natural products and synthetic analogues against HIV: A perspective to develop new potential anti-HIV drugs” (Eur J Med Chem, 2022).

Legend:
C8166 = test: Cytotoxicity against human C8166 cells assessed as reduction in cell viability by MTT assay; type: functional
[1] = Selectivity index, ratio of IC50 for human 1A2 cells to EC50 for HIV-1 MC99 harboring deltaTat/Rev infected in human 1A2 cells; type: toxicity, cell-based; settings: read-out: Ratio IC50/EC50
[2] = molecular target: Human immunodeficiency virus type 1 reverse transcriptase (Human immunodeficiency virus 1) (UniProt Q72547); test: Inhibition of HIV-1 reverse transcriptase using […] and oligo d(T)16 as primer at 200 ug/ml incubated for 1 hr by PicoGreen DNA fluorescence assay relative to control; settings: dose 200.0 µg/ml
[3] = molecular target: Human immunodeficiency virus type 1 reverse transcriptase (Human immunodeficiency virus 1) (UniProt Q72547); test: Inhibition of HIV-1 reverse transcriptase at 200 ug/ml using poly(A) ribonucleotide as template and oligo d(T)16 as primer incubated for 1 hr by PicoGreen DNA fluorescence assay relative to control; settings: dose 200.0 µg/ml
[4] = molecular target: Human immunodeficiency virus type 1 integrase (Human immunodeficiency virus 1, UniProt Q7ZJM1); test: Inhibition of recombinant HIV-1 subtype C integrase using double-stranded FITC-labelled target DNA as substrate pre-incubated for 45 mins followed by substrate addition measured after 60 mins by strand transfer inhibition assay
Chain of Human immunodeficiency virus type 1 integrase (Q7ZJM1 whole entry): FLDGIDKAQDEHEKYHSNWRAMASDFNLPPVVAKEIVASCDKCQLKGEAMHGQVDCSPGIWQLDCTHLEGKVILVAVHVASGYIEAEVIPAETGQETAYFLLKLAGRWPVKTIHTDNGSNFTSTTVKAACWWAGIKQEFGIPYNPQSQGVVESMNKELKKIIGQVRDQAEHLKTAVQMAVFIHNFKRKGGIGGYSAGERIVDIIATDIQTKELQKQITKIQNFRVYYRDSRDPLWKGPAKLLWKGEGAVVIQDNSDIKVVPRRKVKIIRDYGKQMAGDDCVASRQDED

[5] = molecular target: T1, Human immunodeficiency virus type 1 reverse transcriptase (Human immunodeficiency virus 1, UniProt Q72547); test: Inhibition of HIV-1 reverse transcriptase preincubated for 45 mins followed by substrate addition by immunoassay
[6] = test system: Human immunodeficiency virus 1; test: Antiviral activity against HIV-1 NL4-3 infected in human MT4 cells assessed as reduction in viral replication incubated for 48 hrs followed by addition of fresh medium containing compound measured after 2 days by ELISA; type: functional, organism-based; settings: Human immunodeficiency virus 1, NL4-3, MT4, 48 h
[7] = test system: Human immunodeficiency virus 1; test: Antiviral activity against HIV-1 infected in PBMC (unknown origin) assessed as viral growth inhibition; type: functional, organism-based; settings: Human immunodeficiency virus 1, PBMC
[8] = test system: Human immunodeficiency virus 1; test: Antiviral activity against HIV-1 assessed as viral growth inhibition; type: functional, organism-based
[9] = test system: Human immunodeficiency virus 1; test: Antiviral activity against HIV-1 infected in human C8166 cells assessed as reduction in virus-induced cytopathic effect by MTT assay; type: functional, organism-based; settings: Human immunodeficiency virus 1, C8166
[10] = test system: Human immunodeficiency virus 1; test: Antiviral activity against HIV-1 NL4-3 infected in human TZM-bl cells assessed as viral growth inhibition by luciferase assay; type: functional, organism-based; settings: Human immunodeficiency virus 1, NL4-3, TZM-bl
[11] = molecular target: T1, Human immunodeficiency virus type 1 reverse transcriptase; test: Inhibition of HIV-1 LTR reverse transcriptase infected in human CEM cells using RNA template incubated for 1 hr by RT-PCR based cell-free assay
[12] = test system: Human immunodeficiency virus 1; test: Antiviral activity against HIV-1 infected in human CEM-GFP cells assessed as inhibition of viral replication incubated for 68 hrs by MTT assay; type: functional, organism-based; settings: Human immunodeficiency virus 1, CEM-GFP
[13] = molecular target: T1, Human immunodeficiency virus type 1 reverse transcriptase; test: Inhibition of recombinant HIV-1 reverse transcriptase using ABTS as substrate incubated for 1 hr by ELISA
[14] = molecular target: Human immunodeficiency virus type 1 reverse transcriptase (Human immunodeficiency virus 1) (UniProt Q72547); test: Inhibition of recombinant HIV-1 reverse transcriptase at 200 ug/ml by ELISA relative to control; settings: dose 200.0 µg/ml
[15] = molecular target: T1, Human immunodeficiency virus type 1 reverse transcriptase; test: Inhibition of wild-type HIV-1 reverse transcriptase by Picogreen assay
[16] = molecular target: Human immunodeficiency virus type 1 reverse transcriptase (Human immunodeficiency virus 1) (UniProt Q72547); test: Displacement of [3H]TTP/polyA from HIV-1 reverse transcriptase at 200 ug/ml relative to control; settings: dose 200.0 µg/ml
[17] = test system: Human immunodeficiency virus 1; test: Antiviral activity against patient-derived wild-type HIV-1 infected in human CEM-T4 cells assessed as inhibition of viral replication preincubated for 24 hrs followed by viral infection measured after 7 days by ELISA; type: functional, organism-based; settings: Human immunodeficiency virus 1, CEM-T4

`C=CC(C)(C)c1cc2cc3c(c(CC=C(C)C)c2oc1=O)O[C@H](C(C)(C)O)C3` gave a CC50 (C8166) of over 200000 nM.
Work on `COc1cc(OC)c([C@@H]2CC[C@H]3C[C@@H](c4cc(OC)c(OC)cc4OC)Oc4cc(OC)c(O)c2c43)cc1OC` yielded a selectivity ratio [1] of 3.7, an inhibition [2] of 41.4% and an inhibition [3] of 41.4%.
Compound `CC(=O)N[C@H]1[C@H](O[C@H]2CC[C@]3(C)[C@H]4CC=C5[C@@H]6CC(C)(C)CC[C@]6(C(=O)O)CC[C@@]5(C)[C@]4(C)CC[C@H]3C2(C)C)O[C@H](CO)[C@@H](O)[C@@H]1O` has an IC50 [4] of 18300 nM.
For `O=C1CSC(c2ccc(O)cc2)N1c1nc2ccc(Cl)cc2s1` (stereo not given), the IC50 [5] was 300 nM.
With `COc1cc2c(c(O)c1C)Oc1c(C=O)c(O)cc(C)c1C(=O)O2` the IC50 [4] was 4650 nM.
Work on `CO[C@H](Cc1cc2ccc(=O)oc2cc1O)C(C)(C)O` yielded a CC50 (C8166) of over 200000 nM.
`C=C(C)[C@]12C[C@@H](COC(C)=O)[C@@]34OC5(O[C@@H]1[C@@H]3[C@@H]1O[C@]1(CO)[C@@H](O)[C@@]1(O)[C@H]4[C@H]([C@H](C)[C@@H]1C(=O)c1ccccc1)[C@H](C)C[C@H](C(=O)c1ccccc1)[C@H](OC(C)=O)[C@@H](C(=O)c1ccccc1)CC[C@H]5O)O2` gave an IC50 [6] of at most 0.25 nM.
`CC(C)(O)C(=O)Cc1cc2ccc(=O)oc2cc1O` [PEUCEDANONE] gave a CC50 (C8166) of over 200000 nM.
Compound `O=C1CSC(c2ccc(F)cc2)N1c1nc2c(Cl)cccc2s1` (stereo not given) has an IC50 [5] of under 1 nM.
With `COc1cc(O)c(-c2c(C)cc(O)c3c2Cc2cccc(O)c2C3=O)c(O)c1C(C)=O` the EC50 [7] was 4300 nM.
For `CC1=C(C(=O)OCc2ccccc2)C(c2ccc(Cl)c([N+](=O)[O-])c2)NC(=O)N1` (stereo not given), the IC50 [8] was 15 µg/mL.
`C=CC(CO)[C@@H]1C[C@H]2c3[nH]c4ccccc4c3CCN2C(=O)[C@H]1CO` (stereo not given in full) gave an EC50 [9] of 12200 nM.
In the case of `CCCCCOC(=O)C[C@H](NP(=O)(CO[C@@H](CF)Cn1ccc2c(=O)[nH]c(N)nc21)Oc1ccccc1)C(=O)OCCCCC` (stereo not given in full), the IC50 [10] is reported as 2000 nM.
`C=C(C)[C@]12C[C@@H](COC(C)=O)[C@@]34OC5(O[C@@H]1[C@@H]3[C@@H]1O[C@]1(CO)[C@@H](O)[C@@]1(O)[C@H]4[C@H]([C@H](C)[C@@H]1C(=O)c1ccccc1)[C@H](C)C[C@H](C(=O)c1ccccc1)[C@H](C(=O)c1ccccc1)CCC[C@H]5O)O2` gave an IC50 [6] of at most 0.25 nM.
Work on `CC1=C(C(=O)OCc2ccccc2)C(c2cccc(C(F)(F)F)c2)NC(=O)N1` (stereo not given) yielded an IC50 [8] of 15 µg/mL.
In the case of `C#CCOCc1cn(C2CCON2C(=O)OCc2ccccc2)c(=O)[nH]c1=O` (stereo not given), the IC50 [11] is reported as 50 nM.
For `Cc1cc(=O)c2ccc(N=C=S)cc2o1`, the IC50 [12] was 1000 nM.
In the case of `O=C(O)[C@]1(O)C[C@H](O)[C@@H](O)[C@@H](O)C1`, the IC50 [13] is reported as 280000 nM.
`O=C(OCc1ccccc1)N1OCCC1n1cc(COCc2ccccc2)c(=O)[nH]c1=O` (stereo not given) gave an IC50 [11] of 1000 nM.
Compound `O=C1C[C@@H](c2ccc(O)cc2)Oc2cc(O)cc(O)c21` has an inhibition [14] of 44.2%.
Compound `N#Cc1ccc2c(Oc3ccccc3OCCn3ccc(=O)[nH]c3=O)cc(F)cc2c1` has an IC50 [15] of 4.8 nM.
Work on `O=c1cc(-c2ccc(O)c(O)c2)oc2c([C@@H]3O[C@H](CO)[C@@H](O)[C@H](O)[C@H]3O)c(O)cc(O)c12` yielded an inhibition [16] of 52%.
In the case of `CC(C)=CCc1cc2ccc(=O)oc2c(CC=C(C)C)c1O`, the CC50 (C8166) is reported as over 200000 nM.
`C=C(CP(=O)(OCC)OCC)[C@@H]1CC[C@]2(C(=O)O)CC[C@]3(C)[C@H](CC[C@@H]4[C@@]5(C)CC[C@H](OC(=O)CC(C)(C)C(=O)O)C(C)(C)[C@@H]5CC[C@]43C)[C@@H]12` gave an IC50 [17] of 300 nM.
With `C=CC(C)(C)c1cc2cc3c(cc2oc1=O)O[C@H](C(C)(C)O)[C@H]3O` the CC50 (C8166) was over 200000 nM.
In the case of `C=CC(CO)[C@@H]1C[C@H]2c3[nH]c4ccccc4c3CCN2C(=O)[C@@H]1CO` (stereo not given in full), the EC50 [9] is reported as 12200 nM.
In the case of `CCCCCOC(=O)C[C@H](NP(=O)(CO[C@@H](CF)Cn1ccc2c(=O)[nH]c(N)nc21)N[C@@H](CC(=O)OCCCCC)C(=O)OCCCCC)C(=O)OCCCCC`, the IC50 [10] is reported as 2000 nM.
Compound `CCn1cc(C(=O)O)c(=O)c2cc(F)c(N3CCN(S(=O)(=O)c4ccc(OC)cc4)CC3)cc21` has an IC50 [8] of 50 nM.
